Measurements taken from US20090131391A1, “INHIBITOR FOR DIFFERENTIATION OF HEMATOPOIETIC PRECURSOR CELLS” (OOO "MBF", priority 2006, published 2009).

Tests used:
[1] = system: LLC (Lewis lung carcinoma); assay: Lewis lung carcinoma growth and metastasis with Platidiam (cisplatin) treatment; assay type: in vivo, C57B1/6 mice
[2] = system: colony-forming cells in the spleen, CFC-S; assay: Exogenous spleen colony assay (CFC-S) after agent and gamma-irradiation of donor mice; assay type: in vivo
Description: Assay of effect of various doses of ionizing radiation on hematopoiesis. 950 female mice of two lines—(CBA×C 57 B 1/6) F1 and (DBA×C 57B1/6) F1—were used in this study. Radiation was administered using a radiation therapy machine “Luch-1” utilizing gamma-rays ^60Co at 0.9 Gy/min. 9-phenyl-symmetric-octahydroselenoxanthene was administered orally in doses 1.0, 5.0, 10 and 20 mg/kg in 0.2 ml of oil. Agent was administered 1, 3 or 7 days prior to radiation treatment of 1.5 Gy; bone marrow was then extracted from donor mice, and cell suspension was injected into lethally irradiated (8 Gy) recipient mice of the same line. Colony-forming activity was assayed by number of exogenous spleen colonies when mice were sacrificed on day 9.
300 female mice of line (CBA×C57B1/6) F1 were used in the experiment. Radiation was administered using a radiation therapy machine “Luch-1” utilizing gamma-rays ^60Co at 0.9 Gy/min. 9-phenyl-symmetric-octahydroselenoxanthene was administered orally in doses 1.0, 5.0, 10 and 20 mg/kg in 0.2 ml of oil 7 days prior to radiation treatment at following doses: 1.5, 2.0, 3.0 and 5.0 Gy. Bone marrow was extracted 10-15 minutes after the treatment and the cell suspension was injected into lethally irradiated (8 Gy) recipient mice. Colony-forming activity was assayed by number of exogenous spleen colonies when mice were sacrificed on day 9.

[3] = system: Lewis lung carcinoma (LLC); assay: Lewis lung carcinoma growth index and lung metastases with localized irradiation; assay type: in vivo, mice; details: for Average number of lung metastases: day 21, surviving animals
Description: The number of lung metastases was assayed on day 21 in surviving animals.
As in the previous series, tumor cells were injected subcutaneously into right hind leg at 2.0×10^6 cells/mouse (total of 40 mice).

CD34+ cells = assay: Flow cytometry of CD34+ cells in bone marrow and peripheral blood; assay type: in vivo, mouse
Description: The effects of the proposed agent (9-phenyl-symmetric-octahydroselenoxanthene) on mouse hematopoiesis were assayed by flow cytometry. Relative number of CD34+ cells and the density of the antigen were assayed in peripheral blood cells (80,000 cells per sample) and bone marrow cells (40,000 cells per sample). As reported earlier, administration of the proposed agent has no effect on relative number of less differentiated stem cells (CD34+).

[4] = system: polychromatophil mouse erythrocytes (line C57 B1); assay: Micronuclei in peripheral polychromatophil erythrocytes after electromagnetic irradiation; assay type: in vivo
Description: Protective properties of 9-phenyl-symmetric-octahydroselenoxanthene against non-ionizing radiation were examined by studying formation of micronuclei in polychromatophil mouse erythrocytes (line C57 B1). Micronuclei of the interphase nucleus are acentric chromosome fragments. Animals were exposed to electromagnetic radiation in millimeter wavelength range, frequency 39.5 GHz, and wavelength 7.5 mm for 1 hour. Flux density was approximately 3 microW/cm^2, which is 300 fold less than levels posing danger of overheating due to field energy absorption to a biological object.
5 mg/kg of 9-phenyl-symmetric-octahydroselenoxanthene was administered to group 1 (n=5) orally in 0.2 ml of oil 7 days prior to irradiation. Group 2 (n=5) received 0.2 ml of oil only and untreated mice were used as controls. Mice were sacrificed 1 day after irradiation and number of micronuclei was assayed in peripheral polychromatophil erythrocytes (150,000 cells per sample).

[5] = Inhibitor + localized irradiation
[6] = concurrent use with localized irradiation
[7] = Agent administered 1 day prior to analysis, no irradiation
[8] = Agent administered 7 days prior to analysis + irradiation, 1.5 Gy
[9] = Agent administered 7 days prior to analysis, no irradiation

N.N.[Cl][Pt][Cl] [Platidiam (cisplatin), cisplatin]
Avg number of lung metastases M ± m ([1]; C57B1/6 mice with LLC): 6.2 ± 0.7 | Tumor mass, g M ± m ([1]; C57B1/6 mice with LLC): 4.5 ± 0.5 g | Tumor volume, sm^3 M ± m ([1]; C57B1/6 mice with LLC): 4.6 ± 0.6 sm^3 | anti-tumor effect (tumor mass and lung metastases) ([1]; C57B1/6 mice with LLC): slight but consistent anti-tumor effect

9-phenyl-symmetric-octahydroselenoxanthene
effect on tumor growth and number of lung metastases ([1]; administered 30 minutes prior to chemotherapy with Platidiam (cisplatin)): did not exhibit any significant effect | cell survival compared with the untreated control ([2]; 5.0 mg/kg 7 days prior, 1.5 Gy): not significantly different | Cell survival relative to the irradiated control ([2]; 5.0 mg/kg 7 days prior, all radiation doses excluding 1.5 Gy (2.0, 3.0, 5.0 Gy)): 2 fold | effect on CFC-S number in donor mice ([2]; 5.0 mg/kg of the agent alone at various time points prior to bone marrow extraction): no effect | Number of colonies formed per 10^5 of bone marrow cells, M ± m ([2]; 5 mg/kg orally, 1 day prior to irradiation 1.5 Gy): 6.4 ± 0.5 per 10^5 of bone marrow cells | Number of colonies formed per 10^5 of bone marrow cells, M ± m ([2]; 5 mg/kg orally, 1 day prior, no irradiation): 12.5 ± 0.6 per 10^5 of bone marrow cells | Number of colonies formed per 10^5 of bone marrow cells, M ± m ([2]; 5 mg/kg orally, 3 days prior to irradiation 1.5 Gy): 9.1 ± 0.5 per 10^5 of bone marrow cells | Number of colonies formed per 10^5 of bone marrow cells, M ± m ([2]; 5 mg/kg orally, 3 days prior, no irradiation): 10.7 ± 0.4 per 10^5 of bone marrow cells | Number of colonies formed per 10^5 of bone marrow cells, M ± m ([2]; 5 mg/kg orally, 7 days prior to irradiation 1.5 Gy (Table 1)): 12.7 ± 0.7 per 10^5 of bone marrow cells | Number of colonies formed per 10^5 of bone marrow cells, M ± m ([2]; 5 mg/kg orally, 7 days prior, no irradiation): 11.1 ± 0.7 per 10^5 of bone marrow cells | persistence of the CFC-S adaptive response ([2]; 5.0 mg/kg, 1.5 Gy): 7 days | increase in CFC-S compared to the irradiated control ([2]; 5.0 mg/kg, 1 day prior to 1.5 Gy (minimal effect)): 2 fold | decrease of the effects of radiation ([2]; 5.0 mg/kg, 7 days prior to 1.5 Gy (maximal effect)): 3 fold | Number of colonies formed per 10^5 of bone marrow cells, M ± m ([2]; 5 mg/kg, 7 days prior to radiation dose 1.5 Gy (Table 2)): 9.2 ± 0.2 per 10^5 of bone marrow cells | Number of colonies formed per 10^5 of bone marrow cells, M ± m ([2]; 5 mg/kg, 7 days prior to radiation dose 2.0 Gy): 3.6 ± 0.3 per 10^5 of bone marrow cells | Number of colonies formed per 10^5 of bone marrow cells, M ± m ([2]; 5 mg/kg, 7 days prior to radiation dose 3.0 Gy): 2.1 ± 0.1 per 10^5 of bone marrow cells | Number of colonies formed per 10^5 of bone marrow cells, M ± m ([2]; 5 mg/kg, 7 days prior to radiation dose 5.0 Gy): 0.6 ± 0.06 per 10^5 of bone marrow cells | Growth index [3, 5]: 4.6 ± 0.8 | Growth index ([3]; Inhibitor + localized irradiation, 1 day): 1 | Growth index ([3]; Inhibitor + localized irradiation, 4 days): 1.4 ± 0.1 | Growth index ([3]; Inhibitor + localized irradiation, 6 days): 1.7 ± 0.2 | Growth index ([3]; Inhibitor + localized irradiation, 8 days): 1.84 ± 0.3 | Growth index ([3]; Inhibitor + localized irradiation, 11 days): 2.65 ± 0.6 | Average number of lung metastases [3, 5]: 13.4 ± 1.8 | Growth index ([3]; Inhibitor alone): 7.7 ± 1.7 | Growth index ([3]; Inhibitor alone, 1 day): 1 | Growth index ([3]; Inhibitor alone, 4 days): 1.64 ± 0.1 | Growth index ([3]; Inhibitor alone, 6 days): 3.3 ± 0.25 | Growth index ([3]; Inhibitor alone, 8 days): 3.9 ± 0.7 | Growth index ([3]; Inhibitor alone, 11 days): 5.3 ± 0.7 | Average number of lung metastases ([3]; Inhibitor alone): 33.5 ± 2.5 | growth indexes of agent alone versus agent + irradiation ([3]; combination with irradiation): not significantly different | effect on metastasis [3, 6]: does not significantly increase metastasis | protection of tumor cells from effects of radiation [3, 6]: does not protect the tumor cells from effects of radiation | effect on tumor growth ([3]; inhibitor alone vs control): does not affect tumor growth | influence on metastatic processes ([3]; non-irradiated and irradiated tumor-bearing mice, day 21): does not influence metastatic processes significantly | Total CD34+ cells in bone marrow, 10^7, Mean (CD34+ cells; Agent administered 1 day prior to analysis + irradiation, 1.5 Gy): 2.1 10^7 | Total CD34+ cells in bone marrow, 10^7, Mean (CD34+ cells; [7]): 4.0 10^7 | Total CD34+ cells per 1 ml of peripheral blood, 10^3, Mean (CD34+ cells; [7]): 6.8 10^3 | Total CD34+ cells in bone marrow, 10^7, Mean (CD34+ cells; [8]): 1.0 10^7 | Total CD34+ cells per 1 ml of peripheral blood, 10^3, Mean (CD34+ cells; [8]): 3.8 10^3 | Total CD34+ cells in bone marrow, 10^7, Mean (CD34+ cells; [9]): 4.0 10^7 | Total CD34+ cells per 1 ml of peripheral blood, 10^3, Mean (CD34+ cells; [9]): 8.0 10^3 | number of more differentiated progenitors (CD34+ cells; blood cells, after 7 days): decreases | portion of CD34+ cells on the blood (CD34+ cells; blood cells, three experiments): does not change | density of CD34 antigen on the cell surface (CD34+ cells; by day 7 after the agent administration, p<0.05): increases | effect on relative number of less differentiated stem cells (CD34+) (CD34+ cells; flow cytometry): no effect | effect on differentiation of progenitor cells (CD34+ cells; peripheral blood and bone marrow composition after irradiation): blocks differentiation of progenitor cells of the granulocyte/macrophage lineage | Frequency of micronuclei-containing polychromatophil erythrocytes × 10^3 ([4]; 5 mg/kg orally 7 days prior to electromagnetic irradiation 39.5 GHz, 1 hour, assayed 1 day after irradiation): 6.0 ± 2.10 × 10^3 | protection against non-ionizing radiation ([4]; electromagnetic irradiation): confers protection
